Laboratory results from patent publication US4416885A, “Use of isopropylaminopyrimidine in the chemotherapy of muscular dystrophy, myopathy and myotonia” (priority 1982, dated 1983).

Experiments:
Dystrophic monocytes = experiment: Effect on human monocytes in culture (flat cells), dystrophic; format: cell-based; conditions: dystrophic monocytes + IAPP, six individuals, cultured 5-7 days; without IAPP 36.2%; preliminary
[1] = test system: dystrophic New Hampshire chickens, line 413; experiment: Toxicity (weight change, other symptoms) in dystrophic chickens; format: in vivo, chicken
dystrophic chickens 413 = experiment: Experiment 4, flip test (25 flips), dystrophic chickens; format: in vivo, chicken
Protocol: (§1) All chickens were injected with 50 mg/Kg IAPP and weighed approximately every second or third day.
(§2) B, C, D: Experimental-injected with 50 mg/Kg IAPP

[2] = test system: 413 dystrophic skeletal explants; experiment: Effect on dystrophic skeletal explants in cell culture (microtubules); format: cell-based, chicken; conditions: upon incubation in IAPP, 0.5 mg/ml; skeletal and cardiac explants
Protocol: In these experiments 2-week and 3-week normal and dystrophic chickens (that had no previous injections with IAPP) were sacrificed and skeletal and cardiac explants were placed in culture with 0.5 mg/ml IAPP added. The pooled results of these experiments are as follows: […]

normal chickens 412 = experiment: Experiment 4, weight of normal chickens injected with IAPP; format: in vivo, chicken; conditions: 50 mg/Kg
Protocol: as §1
A: Control-injected with PBS
as §2

[3] = test system: dystrophic 413 muscle explants; experiment: Microtubule complexes in muscle explants of injected dystrophic chickens; format: in vivo, chicken
From the text: Essentially, these experiments were divided into three subgroups, taken from the previous Table:
413A, 413B, 412A, 412B: All were sacrificed after 4 injections and muscle explants placed in culture.
413C, 412C: All were sacrificed after 8 injections and muscle explants were placed in culture.
413D, 412D: All were sacrificed after 10 injections and muscle explants placed in culture.
All explants were placed in CMRL culture medium containing 5% horse serum, 15% fetal bovine serum and 1% antibiotics and allowed to grow for 5-7 days before being fixed and observed for the presence or absence of microtubules. No IAPP was added to the culture medium during the 5-7 days in culture.

[4] = test system: plasma CPK (creatine phosphokinase); experiment: Plasma CPK; format: in vivo, chicken
Protocol: Chemotherapy was assessed by application of seven different parameters: physical tests of muscular disability, namely the flip test and wing apposition (W.A.) measurements; biochemical assays of serum and muscle enzume levels of creatine phosphokinase (CPK), pyruvate kinase (PK) and acetylcholinesterase (AChE); and histological comparisons of treated and untreated muscle. Toxicity studies (weight loss, etc.) were also used. A very comprehensive profile of the drug was thus obtained which related to all the known, highly characteristic features of the disease which are applicable to both the animal model and the human.
Plasma CPK rises dramatically in the dystrophic chicken as it does also in the human disease. The normal chicken has 200-300 U/l CPK, compared to about 20,000 U/l in the untreated dystrophic chicken at its peak. It rises to these high levels over a period of two months and is, therefore, a significant index of the disease. […]
Finally, oral therapy with IAPP was undertaken at gradually increasing dosages up to 1 g/Kg/day. The parameters (physical, biochemical and histological) measured previously were again used to test the efficacy of the drug; five different dosages were used orally, each being given for 30-60 days, daily (Tables VII-XI). A total of 75 animals were treated in the current study with IAPP and 70 control animals were used.

[5] = 200 mg/Kg i.p. daily for 30 days, day 28 ex ovo
[6] = 200 mg/Kg i.p. daily for 30 days, day 45 ex ovo
[7] = 200 mg/Kg i.p. daily for 30 days, day 56 ex ovo
[8] = 200 mg/Kg i.p. daily for 30 days, day 84 ex ovo
[9] = 300 mg/Kg i.p. daily for 30 days, day 28 ex ovo
[10] = 300 mg/Kg i.p. daily for 30 days, day 45 ex ovo
[11] = 300 mg/Kg i.p. daily for 30 days, day 56 ex ovo
[12] = 300 mg/Kg i.p. daily for 30 days, day 84 ex ovo
[13] = 300 mg/Kg i.p. three times weekly for 30 days, day 28 ex ovo
[14] = 300 mg/Kg i.p. three times weekly for 30 days, day 45 ex ovo
[15] = 300 mg/Kg i.p. three times weekly for 30 days, day 84 ex ovo
[16] = Table VII, oral 200 mg/Kg, 60 days, day 28 ex ovo
[17] = Table VII, oral 200 mg/Kg, 60 days, day 35 ex ovo
[18] = Table VII, oral 200 mg/Kg, 60 days, day 45 ex ovo
[19] = Table VII, oral 200 mg/Kg, 60 days, day 60 ex ovo
[20] = oral 300 mg/Kg daily, day 28 ex ovo
[21] = oral 300 mg/Kg daily, day 35 ex ovo
[22] = oral 450 mg/Kg daily for 45 days, day 28 ex ovo
[23] = oral 450 mg/Kg daily for 45 days, day 35 ex ovo
[24] = oral 450 mg/Kg daily for 45 days, day 50 ex ovo
[25] = oral 600 mg/Kg daily, day 28 ex ovo
[26] = oral 600 mg/Kg daily, day 35 ex ovo
[27] = oral 600 mg/Kg daily, day 50 ex ovo
[28] = oral 1 g/Kg daily, day 28 ex ovo
[29] = oral 1 g/Kg daily, day 35 ex ovo

Compound: CC(C)Nc1ncccn1.O=P(O)(O)O [IAPP, 2-isopropylaminopyrimidine orthophosphate]
- % Flat Cells (Dystrophic monocytes): 45.1%
- Maximum Weight Loss ([1]; 300 mg/Kg i.p. three times weekly for 30 days): 17%
- Weight loss / toxic symptoms ([1]; initial single injection 50 mg/Kg, over 7 days): no weight loss over 7 days, nor any other toxic symptoms
- Maximum Weight Loss ([1]; oral 600 mg/Kg daily): 4%
- Maximum weight loss, reduction from control values ([1]; oral therapy, all doses): 7%
- Number of flips at which animal fatigued (dystrophic chickens 413; 413D experimental animal, day 25, 50 mg/Kg): 19 flips
- Flip test outcome (dystrophic chickens 413; dystrophic drug injected chickens, 50 mg/Kg): able to pass the flip test
- Staining of microtubules in dystrophic cells in culture [2]: appears to normalize upon incubation in IAPP
- Weight (normal chickens 412; Exp. 4, 412B, day 1): 51.3 GRAMS
- Weight (normal chickens 412; Exp. 4, 412B, day 4): 55.8 GRAMS
- Weight (normal chickens 412; Exp. 4, 412B, day 7): 67.6 GRAMS
- Weight (normal chickens 412; Exp. 4, 412B, day 9): 68.1 GRAMS
- Weight (normal chickens 412; Exp. 4, 412C, day 1): 50.8 GRAMS
- Weight (normal chickens 412; Exp. 4, 412C, day 4): 59.9 GRAMS
- Weight (normal chickens 412; Exp. 4, 412C, day 7): 67.8 GRAMS
- Weight (normal chickens 412; Exp. 4, 412C, day 9): 67.7 GRAMS
- Weight (normal chickens 412; Exp. 4, 412C, day 11): 76.4 GRAMS
- Weight (normal chickens 412; Exp. 4, 412C, day 14): 111.8 GRAMS
- Weight (normal chickens 412; Exp. 4, 412C, day 16): 139.0 GRAMS
- Weight (normal chickens 412; Exp. 4, 412C, day 17): 150.2 GRAMS
- Weight (normal chickens 412; Exp. 4, 412D, day 1): 52.6 GRAMS
- Weight (normal chickens 412; Exp. 4, 412D, day 4): 60.5 GRAMS
- Weight (normal chickens 412; Exp. 4, 412D, day 7): 67.7 GRAMS
- Weight (normal chickens 412; Exp. 4, 412D, day 9): 67.7 GRAMS
- Weight (normal chickens 412; Exp. 4, 412D, day 11): 76.6 GRAMS
- Weight (normal chickens 412; Exp. 4, 412D, day 14): 112.8 GRAMS
- Weight (normal chickens 412; Exp. 4, 412D, day 16): 139.6 GRAMS
- Weight (normal chickens 412; Exp. 4, 412D, day 20): 191.5 GRAMS
- Weight (normal chickens 412; Exp. 4, 412D, day 22): 246.4 GRAMS
- Weight (normal chickens 412; Exp. 4, 412D, day 25): 273.4 GRAMS
- % Full Complexes Microtubules ([3]; 413B, Subgroup A, after 4 injections of 50 mg/Kg, 413A control 31%): 58%
- % Full Complexes Microtubules ([3]; 413C, Subgroup B, after 8 injections of 50 mg/Kg): 60%
- % Full Complexes Microtubules ([3]; 413D, Subgroup C, after 10 injections of 50 mg/Kg): 74%
- CPK [4, 5]: 478 mU/ml
- CPK, % change from control [4, 5]: -61%
- CPK [4, 6]: 4810 mU/ml
- CPK, % change from control [4, 6]: -40%
- CPK [4, 7]: 5412 mU/ml
- CPK, % change from control [4, 7]: -48%
- CPK [4, 8]: 13,540 mU/ml
- CPK, % change from control [4, 8]: -36%
- CPK [4, 9]: 651 mU/ml
- CPK, % change from control [4, 9]: -46%
- CPK [4, 10]: 4505 mU/ml
- CPK, % change from control [4, 10]: -44%
- CPK [4, 11]: 7629 mU/ml
- CPK, % change from control [4, 11]: -27%
- CPK [4, 12]: 24,248 mU/ml
- CPK, % change from control [4, 12]: +15%
- CPK [4, 13]: 651 mU/ml
- CPK, % change from control [4, 13]: -46%
- CPK [4, 14]: 6076 mU/ml
- CPK, % change from control [4, 14]: -24%
- CPK ([4]; 300 mg/Kg i.p. three times weekly for 30 days, day 56 ex ovo): 7944 mU/ml
- CPK [4, 15]: 16,602 mU/ml
- CPK, % change from control [4, 15]: -21%
- % CPK Change vs untreated dystrophic controls ([4]; Exp. 2, 40 mg/Kg i.p. daily, day 7-13): -8%
- % CPK Change vs untreated dystrophic controls ([4]; Exp. 2, 40 mg/Kg i.p. daily, day 14-20): -46%
- % CPK Change vs untreated dystrophic controls ([4]; Exp. 2, 40 mg/Kg i.p. daily, day 21-27): -21%
- % CPK Change vs untreated dystrophic controls ([4]; Exp. 2, 40 mg/Kg i.p. daily, day 28-34): -59%
- % CPK Change vs untreated dystrophic controls ([4]; Exp. 2, 40 mg/Kg i.p. daily, day 35-41): -57%
- % CPK Change vs untreated dystrophic controls ([4]; Exp. 2, 40 mg/Kg i.p. daily, day 42-48): -72%
- % CPK Change vs untreated dystrophic controls ([4]; Exp. 2, 40 mg/Kg i.p. daily, day 56-62): -47%
- % CPK Change vs untreated dystrophic controls ([4]; Exp. 2, 40 mg/Kg i.p. daily, day 63-71): -32%
- % CPK Change vs untreated dystrophic controls ([4]; Exp. 3, 70 mg/Kg i.p. daily, day 21-27): -51%
- % CPK Change vs untreated dystrophic controls ([4]; Exp. 3, 70 mg/Kg i.p. daily, day 28-34): -53%
- CPK [4, 16]: 3496 mU/ml
- CPK, % change from control [4, 16]: -31%
- CPK [4, 17]: 7336 mU/ml
- CPK, % change from control [4, 17]: -1%
- CPK [4, 18]: 9638 mU/ml
- CPK, % change from control [4, 18]: -18%
- CPK [4, 19]: 10,860 mU/ml
- CPK, % change from control [4, 19]: -24%
- Reduction in plasma CPK levels ([4]; oral 200 mg/Kg, 60 days): moderate reduction
- CPK [4, 20]: 3794 mU/ml
- CPK, % change from control [4, 20]: -23%
- CPK [4, 21]: 6690 mU/ml
- CPK, % change from control [4, 21]: -30%
- CPK [4, 22]: 4713 mU/ml
- CPK, % change from control [4, 22]: -18%
- CPK [4, 23]: 6483 mU/ml
- CPK, % change from control [4, 23]: -24%
- CPK [4, 24]: 17,975 mU/ml
- CPK, % change from control [4, 24]: +30%
- CPK [4, 25]: 2658 mU/ml
- CPK, % change from control [4, 25]: -53%
- CPK [4, 26]: 4712 mU/ml
- CPK, % change from control [4, 26]: -45%
- CPK [4, 27]: 9084 mU/ml
- CPK, % change from control [4, 27]: -34%
- CPK [4, 28]: 2217 mU/ml
- CPK, % change from control [4, 28]: -63%
- CPK [4, 29]: 4018 mU/ml
- CPK, % change from control [4, 29]: -68%
